Measurements published in patent US8592581B2, “Trisubstituted purine derivatives” (Cyclacel Limited, priority 2007, dated 2013).
pIC50: −log10 of the molar value.

Assays:
CYP3A4 = CYP3A4 (Homo sapiens (Human), UniProt P08684); experiment: Cytochrome P450 substrate identification (Bactosomes) CYP3A4; type: in vitro ADME
Description: cDNA expressed human CYP450 enzyme preparations co-expressed with human NADPH cytochrome P450 reductase (Bactosomes™) were supplied by Cypex Ltd. Bactosomes™ (final P450 concentration CYP1A2 100 pmol/mL, CYP2C8 50 pmol/mL, CYP2C9 25 pmol/mL, CYP2C19 100 pmol/mL, CYP2D6 50 pmol/mL and CYP3A4 25 pmol/mL), 0.1M phosphate buffer pH7.4 and test compound (final substrate concentration=5 μM; final DMSO concentration=0.25%) were pre-incubated at 37° C. prior to the addition of NADPH (final concentration=1 mM) to initiate the reaction. Incubations were also performed using control bactosomes (no P450 enzymes present) to reveal any non-enzymatic degradation. The final incubation volume was 25 μL. Compounds known to be metabolised specifically by each CYP450 isoform were used as control compounds.
Each compound was incubated singly for 0, 5, 15, 30 and 45 min with each CYP isoform. The reactions were stopped by the addition of 50 μL methanol containing internal standard at the appropriate time points. The incubation plates were centrifuged at 2500 rpm for 20 min at 4° C. to precipitate the protein. Following protein precipitation, the sample supernatants were combined in cassettes of up to four compounds and analysed using generic LC-MS/MS conditions.
The In peak area ratio (which has been corrected for any loss in the incubations with the control bactosomes) was plotted against time and the gradient of the line determined.
The elimination rate constant (k)=(−gradient)

H2052 = experiment: Alamar blue cytotoxicity assay H2052; type: cell-based; settings: Homo sapiens, NCI-H2052; 72 hours; read-out: cellular cytotoxicity IC50 H2052
Description: (§1) In order to determine the cellular potency of the compounds, the cytotoxicity of each compound was determined against a range of cell lines. Standard cytotoxicity methods were performed as follows: cells were seeded in 96-well plates appropriately for their doubling time (2-5000 cells per well) in RPMI or DMEM media containing 10% FCS and incubated overnight at 37° C., 5% CO2. The media was removed and 100 μl fresh media containing increasing concentrations of appropriate compound was added and the cells incubated for 72 hours at 37° C., 5% CO2. A 10% stock of alamar blue (Roche, Lewes, United Kingdom) was prepared in medium and 100 μl added to the cells which were incubated for 2 hours. Absorbance was measured on the Wallac Victor 2 1420 multi-label counter at 544-595 nm.

A2780 = experiment: Alamar blue cytotoxicity assay A2780; type: cell-based; settings: Homo sapiens, 72 hours, read-out: cellular cytotoxicity IC50 A2780
Description: as §1

CDK 2 and CDK9 = experiment: In-vitro kinase potency screen against CDK 2 and CDK9 (statements in words); type: biochemical; settings: Table 7 (not given): [A1], [A2], [A3] and [1]
Description: To evaluate the in-vitro kinase potency of the compounds, they were screened against CDK 2 and CDK9. Kinase assays were performed in 96-well plates using recombinant CDK/cyclins generated at Cyclacel. Ltd Dundee, UK. CDK2 and CDK9 assays were performed in a total volume of 25 μl in assay buffer (25 mM b-glycerophosphate, 20 mM MOPS, 5 mM EGTA, 1 mM DTT and 1 mM NaVO3, pH 7.4), into which were added 2-4 μg of active enzyme with appropriate substrates (purified histone H1 for CDK2/cyclin E, and CDK2/cyclin A, biotinyl-Ahx-(YSPTSPS)4 for CDK9/cyclin T1). The reaction was initiated by addition of Mg/ATP mix (15 mM MgCl2+100 μM ATP with 30-50 kBq per well of [—^32P]-ATP) and mixtures incubated for 15 min (CDK2/cyclin E), 30 min (CDK2/cyclin A) or 45 min (CDK9/cyclin T1) as required, at 30° C. […] After washing 3 times with 75 mM orthophosphoric acid, plates were dried, scintillant added and incorporated radioactivity measured in a scintillation counter (TopCount, Packard Instruments, Pangbourne, Berks, UK). […]
To evaluate the in-vitro kinase potency of the compounds, they were screened against CDK 2 and CDK9. […] After washing 3 times with 75 mM orthophosphoric acid, plates were dried, scintillant added and incorporated radioactivity measured in a scintillation counter (TopCount, Packard Instruments, Pangbourne, Berks, UK). […]

Sequence of CYP3A4 (P08684 whole entry): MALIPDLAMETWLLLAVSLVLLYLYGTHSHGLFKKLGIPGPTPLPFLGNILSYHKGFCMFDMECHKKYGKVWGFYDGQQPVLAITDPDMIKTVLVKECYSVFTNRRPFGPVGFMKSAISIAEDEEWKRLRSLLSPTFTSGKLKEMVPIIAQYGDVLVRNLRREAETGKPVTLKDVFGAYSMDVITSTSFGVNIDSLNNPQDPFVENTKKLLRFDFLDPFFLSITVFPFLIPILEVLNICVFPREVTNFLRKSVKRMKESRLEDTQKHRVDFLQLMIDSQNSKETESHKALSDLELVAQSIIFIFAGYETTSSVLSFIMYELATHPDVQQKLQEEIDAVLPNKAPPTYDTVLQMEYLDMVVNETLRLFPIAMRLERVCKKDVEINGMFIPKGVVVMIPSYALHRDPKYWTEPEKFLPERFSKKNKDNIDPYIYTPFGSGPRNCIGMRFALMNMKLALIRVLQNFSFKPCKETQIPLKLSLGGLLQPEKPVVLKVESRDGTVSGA

CC[C@H](Nc1nc(NCc2cnc(C)cc2C)c2ncn(C(C)C)c2n1)[C@@H](C)O [Compound [1]]
substrate of CYP3A4 (in words) (CYP3A4; Bactosomes system): neither a substrate of nor inhibitor of CYP3A4 | half-life at 5 μM (CYP3A4; human, pH 7.4, Bactosomes, 5 μM test compound, up to 45 min, read-out: half life in the presence of CYP3A4): > 45 min | pIC50 (H2052): 6.54 | pIC50 (A2780): 6.39 | kinase inhibitor potency ranking (in words) (CDK 2 and CDK9): most potent kinase inhibitors
